Results as given in patent US20250122218A1, “MODULATORS OF CYSTIC FIBROSIS TRANSMEMBRANE CONDUCTANCE REGULATOR” (Vertex Pharmaceuticals Incorporated, priority 2022, published 2025).

Molecular target: T1, CFTR in F508del/MF-HBE cells (Homo sapiens, UniProt P13569, DEL508-508)
T1 construct: human bronchial epithelial (HBE) cells derived from CF subjects heterozygous for F508del and a minimal function CFTR mutation; endogenous in cells; host or cells: primary human bronchial epithelial cells from CF subjects (F508del/MF-HBE)
T1 sequence (P13569 with tags, fused parts or gaps DEL508-508): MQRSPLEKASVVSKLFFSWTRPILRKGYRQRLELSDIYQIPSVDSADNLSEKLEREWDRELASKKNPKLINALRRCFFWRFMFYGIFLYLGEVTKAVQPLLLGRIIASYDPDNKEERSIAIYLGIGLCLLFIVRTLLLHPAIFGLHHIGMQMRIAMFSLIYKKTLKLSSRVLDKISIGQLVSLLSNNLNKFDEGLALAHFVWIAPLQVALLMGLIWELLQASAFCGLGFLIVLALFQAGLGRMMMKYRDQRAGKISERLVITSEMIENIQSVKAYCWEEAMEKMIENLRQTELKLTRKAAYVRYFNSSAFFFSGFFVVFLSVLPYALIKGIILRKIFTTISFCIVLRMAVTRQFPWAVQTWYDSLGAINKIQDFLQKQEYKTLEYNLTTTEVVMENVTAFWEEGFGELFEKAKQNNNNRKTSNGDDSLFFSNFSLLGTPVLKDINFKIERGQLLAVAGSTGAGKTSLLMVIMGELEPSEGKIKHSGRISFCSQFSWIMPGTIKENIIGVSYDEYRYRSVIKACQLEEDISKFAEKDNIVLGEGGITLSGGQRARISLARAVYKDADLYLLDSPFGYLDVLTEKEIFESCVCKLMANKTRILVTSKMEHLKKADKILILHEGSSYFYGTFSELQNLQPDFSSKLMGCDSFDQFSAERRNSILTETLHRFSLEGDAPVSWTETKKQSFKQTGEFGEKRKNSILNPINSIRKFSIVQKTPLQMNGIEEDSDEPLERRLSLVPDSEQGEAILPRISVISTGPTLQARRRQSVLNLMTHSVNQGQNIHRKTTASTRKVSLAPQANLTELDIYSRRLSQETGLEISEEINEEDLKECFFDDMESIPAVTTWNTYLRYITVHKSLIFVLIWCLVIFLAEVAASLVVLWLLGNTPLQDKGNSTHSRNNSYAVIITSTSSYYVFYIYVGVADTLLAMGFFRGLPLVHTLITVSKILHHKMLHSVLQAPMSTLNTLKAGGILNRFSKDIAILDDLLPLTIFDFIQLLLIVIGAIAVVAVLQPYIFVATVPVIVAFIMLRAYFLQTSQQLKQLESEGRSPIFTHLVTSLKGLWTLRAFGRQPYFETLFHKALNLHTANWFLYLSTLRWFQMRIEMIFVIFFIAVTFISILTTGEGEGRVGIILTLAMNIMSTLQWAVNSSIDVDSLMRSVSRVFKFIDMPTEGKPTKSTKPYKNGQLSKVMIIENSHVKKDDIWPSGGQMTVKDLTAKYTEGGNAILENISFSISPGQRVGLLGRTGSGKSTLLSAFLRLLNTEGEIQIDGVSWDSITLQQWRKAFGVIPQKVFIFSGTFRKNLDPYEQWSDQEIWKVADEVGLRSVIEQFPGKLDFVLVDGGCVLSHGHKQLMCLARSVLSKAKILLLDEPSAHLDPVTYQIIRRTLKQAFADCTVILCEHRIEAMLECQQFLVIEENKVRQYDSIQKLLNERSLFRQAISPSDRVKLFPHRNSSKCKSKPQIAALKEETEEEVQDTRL
Test: Ussing chamber assay of CFTR-mediated short-circuit currents (identification of potentiator compounds)
Format: cell-based
Details: potentiator incubated 18-24 hours at 37° C. in combination with 10 μM corrector, in the presence of 20% human serum, CFTR-mediated ISC
Method in brief: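 Short-circuit current was measured in Ussing chambers at 37° C, Vhold 0 mV, 30 μM apical amiloride. CFTR current was defined as the forskolin (20 μM) response relative to the current remaining after BPO/GlyH-101/inhibitor 172 (20 μM each). Before recording, cells had 18-24 h exposure to test potentiators with 10 μM corrector compound in 20% human serum.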

EC50 [nM] | SMILES
< 500 | C[C@H](c1ccc(F)cc1)N1CCCCC[C@](O)(C(F)(F)F)C2=NN=C(O2)c2nc(c(C(F)(F)F)cc2N)C1=O [Compound 105, (6R)-17-Amino-12-[(1R)-1-(4-fluorophenyl)ethyl]-6-hydroxy-6,15-bis (trifluoromethyl)-19-oxa-3,4,12,18-tetrazatricyclo [12.3.1.12,5] nonadeca-1(18),2,4,14,1 6-pentaen-13-one]
< 500 | Nc1cc(C(F)(F)F)c2nc1-c1nnc(o1)[C@@](O)(C(F)(F)F)CCCCCN(Cc1ccc(OC(F)(F)F)cc1)C2=O [Compound 106, (6R)-17-Amino-6-hydroxy-12-[[4-(trifluoromethoxy)phenyl]methyl]-6,15-bis (trifluorom 19-oxa-ethyl)-3,4,12,18-tetrazatricyclo [12.3.1.12,5] nonadeca-1(18),2,4,14,1 6-pentaen-13-one]
< 500 | Nc1cc(C(F)(F)F)c2nc1-c1nnc(o1)[C@@](O)(C(F)(F)F)CCCCCN(c1ccccn1)C2=O [Compound 107, (6R)-17-Amino-6-hydroxy-12-(2-pyridyl)-6,15-bis (trifluoromethyl)-19-oxa-3,4,12,18-tetrazatricyclo [12.3.1.12,5] nonadeca-1(18),2,4,14,1 6-pentaen-13-one]
< 500 | Nc1cc(C(F)(F)F)c2nc1-c1nnc(o1)[C@@](O)(C(F)(F)F)CCCCCN(c1ccccc1)C2=O [Compound 108, (6R)-17-Amino-6-hydroxy-12-phenyl-6,15-bis (trifluorom 19-oxa-ethyl)-3,4,12,18-tetrazatricyclo [12.3.1.12,5] nonadeca-1(18),2,4,14,1 6-pentaen-13-one]
< 500 | Cn1cc(N2CCCCC[C@](O)(C(F)(F)F)C3=NN=C(O3)c3nc(c(C(F)(F)F)cc3N)C2=O)cn1 [Compound 109, (6R)-17-Amino-6-hydroxy-12-(1-methylpyrazol-4-yl)-6,15-bis (trifluoromethyl)-19-oxa-3,4,12,18-tetrazatricyclo [12.3.1.12,5] nonadeca-1(18),2,4,14,1 6-pentaen-13-one]
< 500 | Nc1cc(C(F)(F)F)c2nc1-c1nnc(o1)[C@@](O)(C(F)(F)F)CCCCCN(Cc1cccc3ccccc13)C2=O [Compound 110, (6R)-17-Amino-6-hydroxy-12-(1-naphthylmethyl)-6,15-bis (trifluoromethyl)-19-oxa-3,4,12,18-tetrazatricyclo [12.3.1.12,5] nonadeca-1(18),2,4,14,1 6-pentaen-13-one]
< 500 | Nc1cc(C(F)(F)F)c2nc1-c1nnc(o1)[C@@](O)(C(F)(F)F)CCCCCN(Cc1ccc3ccccc3c1)C2=O [Compound 111, (6R)-17-Amino-6-hydroxy-12-(2-naphthylmethyl)-6,15-bis (trifluoromethyl)-19-oxa-3,4,12,18-tetrazatricyclo [12.3.1.12,5] nonadeca-1(18),2,4,14,1 6-pentaen-13-one]
> 1000 | Nc1cc(C(F)(F)F)c2nc1-c1nnc(o1)[C@@](O)(C(F)(F)F)CCCCCN(Cc1cc[nH]n1)C2=O [Compound 112, (6R)-17-Amino-6-hydroxy-12-(1H-pyrazol-3-ylmethyl)-6,15-bis (trifluoromethyl)-19-oxa-3,4,12,18-tetrazatricyclo [12.3.1.12,5] nonadeca-1(18),2,4,14,1 6-pentaen-13-one]
> 1000 | Nc1cc(C(F)(F)F)c2nc1-c1nnc(o1)[C@@](O)(C(F)(F)F)CCCCCN(Cc1cn[nH]c1)C2=O [Compound 113, (6R)-17-Amino-6-hydroxy-12-(1H-pyrazol-4-ylmethyl)-6,15-bis (trifluoromethyl)-19-oxa-3,4,12,18-tetrazatricyclo [12.3.1.12,5] nonadeca-1(18),2,4,14,1 6-pentaen-13-one]
< 500 | CC(C)(C)c1ccc(CN2CCCCC[C@](O)(C(F)(F)F)C3=NN=C(O3)c3nc(c(C(F)(F)F)cc3N)C2=O)cc1 [Compound 116, (6R)-17-Amino-12-[(4-tert-butylphenyl)methyl]-6-hydroxy-6,15-bis (trifluoromethyl)-19-oxa-3,4,12,18-tetrazatricyclo [12.3.1.12,5] nonadeca-1(18),2,4,14,1 6-pentaen-13-one]
> 1000 | Cn1ccc(CN2CCCCC[C@](O)(C(F)(F)F)C3=NN=C(O3)c3nc(c(C(F)(F)F)cc3N)C2=O)n1 [Compound 117, (6R)-17-Amino-6-hydroxy-12-[(1-methylpyrazol-3-yl)methyl]-6,15-bis (trifluorom ethyl)-19-oxa-3,4,12,18-tetrazatricyclo [12.3.1.12,5] nonadeca-1(18),2,4,14,1 6-pentaen-13-one]
> 1000 | Cn1cc(CN2CCCCC[C@](O)(C(F)(F)F)C3=NN=C(O3)c3nc(c(C(F)(F)F)cc3N)C2=O)cn1 [Compound 118, (6R)-17-Amino-6-hydroxy-12-[(1-methylpyrazol-4-yl)methyl]-6,15-bis (trifluoromethyl)-19-oxa-3,4,12,18-tetrazatricyclo [12.3.1.12,5] nonadeca-1(18),2,4,14,1 6-pentaen-13-one]
< 500 | CC(C)(C)c1ccc(CN2CCCCC[C@](O)(C(F)(F)F)C3=NN=C(O3)c3nc(c(C(F)(F)F)cc3N)C2=O)cn1 [Compound 119, (6R)-17-Amino-12-[(6-tert-butyl-3-pyridyl)methyl]-6-hydroxy-6,15-bis (trifluoromethyl)-19-oxa-3,4,12,18-tetrazatricyclo [12.3.1.12,5] nonadeca-1(18),2,4,14,1 6-pentaen-13-one]
< 500 | CC(C)(C)c1ccc(CN2CCCCC[C@](O)(C(F)(F)F)C3=NN=C(O3)c3nc(c(C(F)(F)F)cc3N)C2=O)nc1 [Compound 120, (6R)-17-Amino-12-[(5-tert-butyl-2-pyridyl)methyl]-6-hydroxy-6,15-bis (trifluoromethyl)-19-oxa-3,4,12,18-tetrazatricyclo [12.3.1.12,5] nonadeca-1(18),2,4,14,1 6-pentaen-13-one]
< 500 | Nc1cc(C(F)(F)F)c2nc1-c1nnc(o1)[C@@](O)(C(F)(F)F)CCCCCN(C13CC(F)(C1)C3)C2=O [Compound 121, (6R)-17-Amino-12-(3-fluoro-1-bicyclo[1.1.1]pentanyl)-6-hydroxy-6,15-bis (trifluorom ethyl)-19-oxa-3,4,12,18-tetrazatricyclo [12.3.1.12,5] nonadeca-1(18),2,4,14,1 6-pentaen-13-one]
< 500 | CC12CC(N3CCCCC[C@](O)(C(F)(F)F)c4nnc(o4)-c4nc(c(C(F)(F)F)cc4N)C3=O)(C1)C2 [Compound 122, (6R)-17-Amino-6-hydroxy-12-(3-methyl-1-bicyclo[1.1.1]pentanyl)-6,15-bis (trifluoromethyl)-19-oxa-3,4,12,18-tetrazatricyclo [12.3.1.12,5] nonadeca-1(18),2,4,14,1 6-pentaen-13-one]
< 500 | CC(C)(C)C12CC(N3CCCCC[C@](O)(C(F)(F)F)c4nnc(o4)-c4nc(c(C(F)(F)F)cc4N)C3=O)(C1)C2 [Compound 123, (6R)-17-Amino-12-(3-tert-butyl-1-bicyclo[1.1.1]pentanyl)-6-hydroxy-6,15-bis (trifluoromethyl)-19-oxa-3,4,12,18-tetrazatricyclo [12.3.1.12,5] nonadeca-1(18),2,4,14,1 6-pentaen-13-one]
